Consider four compounds from patent US20240374605A1, “METHODS OF TREATING CANCER” (Foghorn Therapeutics Inc., priority 2021, published 2024).

Data set [1] concerns PKC inhibitor (PKCi)-resistant MP41 uveal melanoma cells. As to the kind of experiment: 7-day growth inhibition assay, PKC inhibitor-resistant cells. Type of data set: cell-based.
For the next data set, the target named is T1, BRG1 (Homo sapiens, UniProt P51532).
T1 construct: made in house; host or cells: High Five insect cells
Put plainly: ATPase catalytic activity of BRG-1, in vitro biochemical assay using ADP-Glo. The settings on record: 30 nM BRG-1, 400 μM ATP, 1 hour room temperature; read-out: IP50 against BRG1. (In general: ADP-Glo turns the ADP formed in a reaction into a luminescent signal.)

Data set [2] deals with Uveal melanoma cell lines, 92-1 or MP41. As to the kind of experiment: 3-day growth inhibition compared with clinical PKC and MEK inhibitors (Cell-titer glow). Type of data set: cell-based. Particulars: 0 to 10 μM, 3 days.
The test system of a further data set is THP1. As to the kind of experiment: 3-day growth inhibition (Cell-titer glow), THP1. It counts as cell-based. Particulars: Homo sapiens, THP-1, 72 h; THP1, Acute monocytic leukemia, 3 days; read-out: Absolute IC50.
In data set [3] the test system is uveal melanoma, prostate cancer, acute leukemia and histocytic lymphoma cell lines. As to the kind of experiment: 3-day growth inhibition (Cell-titer glow), all cell lines of Example 17. It counts as cell-based.
Data set [4] can be described thus: Body weight and tolerability in tumor-bearing mice. The settings on record: all treatments, once daily oral gavage, 3 weeks. Type of data set: in vivo.
In a further data set the test system is MEL202. Put plainly: 3-day growth inhibition (Cell-titer glow), MEL202. It counts as cell-based. Particulars: 72 h; MEL202, Uveal melanoma, 3 days; read-out: Absolute IC50.
In data set [5] the test system is 92-1 uveal melanoma cells. As to the kind of experiment: Uveal melanoma tumor growth inhibition in vivo, subcutaneous xenograft. Set-up: species or system Nude mice.
In a further data set the test system is U937. As to the kind of experiment: 3-day growth inhibition (Cell-titer glow), U937. Type of data set: cell-based. The settings on record: Homo sapiens, U-937, 72 h; U937, Histiocytic lymphoma, 3 days; read-out: Absolute IC50.
The next data set deals with MP38. As to the kind of experiment: 3-day growth inhibition (Cell-titer glow), MP38. It counts as cell-based. The settings on record: 72 h; MP38, Uveal melanoma, 3 days; read-out: Absolute IC50.
The subject of the next data set is MP41. As to the kind of experiment: 3-day growth inhibition (Cell-titer glow), MP41. It counts as cell-based. The settings on record: 72 h; MP41, Uveal melanoma, 3 days; read-out: Absolute IC50.
The subject of a further data set is EOL1. As to the kind of experiment: 3-day growth inhibition (Cell-titer glow), EOL1. It counts as cell-based. Particulars: Homo sapiens, 72 h; EOL1, Acute myeloid leukemia, 3 days; read-out: Absolute IC50.
Another data set relates to 22RV1. Put plainly: 3-day growth inhibition (Cell-titer glow), 22RV1. It counts as cell-based. Particulars: Homo sapiens, 72 h; 22RV1, Prostate, 3 days; read-out: Absolute IC50.
Another data set concerns MP46. As to the kind of experiment: 3-day growth inhibition (Cell-titer glow), MP46. It counts as cell-based. The settings on record: 72 h; MP46, Uveal melanoma, 3 days; read-out: Absolute IC50.
For a further data set, the system named is 92-1. As to the kind of experiment: 3-day growth inhibition (Cell-titer glow), 92-1. It counts as cell-based. Particulars: 72 h; 92-1, Uveal melanoma, 3 days; read-out: Absolute IC50.
The test system of data set [6] is uveal melanoma, hematologic cancer, prostate cancer, breast cancer, and Ewing's sarcoma cell lines. The settings on record: breast cancer and Ewing's sarcoma lines vs the other tested cell lines, 0 to 10 μM, FIG. 4.
The test system of another data set is parental MP41 cells. Put plainly: 7-day growth inhibition assay, parental cells. Particulars: parental MP41, 7-day; FIG. 10.
Data set [7] deals with Uveal melanoma cell lines (92-1, MP41, MP38, MP46) and non-small cell lung cancer cells (NCIH1299). As to the kind of experiment: 3-day growth inhibition (Cell-titer glow), Example 12. The settings on record: 0 to 10 μM, 3 days; FIG. 6. Type of data set: cell-based.

Bounds are passed on as bounds.

T1 sequence (P51532 whole entry): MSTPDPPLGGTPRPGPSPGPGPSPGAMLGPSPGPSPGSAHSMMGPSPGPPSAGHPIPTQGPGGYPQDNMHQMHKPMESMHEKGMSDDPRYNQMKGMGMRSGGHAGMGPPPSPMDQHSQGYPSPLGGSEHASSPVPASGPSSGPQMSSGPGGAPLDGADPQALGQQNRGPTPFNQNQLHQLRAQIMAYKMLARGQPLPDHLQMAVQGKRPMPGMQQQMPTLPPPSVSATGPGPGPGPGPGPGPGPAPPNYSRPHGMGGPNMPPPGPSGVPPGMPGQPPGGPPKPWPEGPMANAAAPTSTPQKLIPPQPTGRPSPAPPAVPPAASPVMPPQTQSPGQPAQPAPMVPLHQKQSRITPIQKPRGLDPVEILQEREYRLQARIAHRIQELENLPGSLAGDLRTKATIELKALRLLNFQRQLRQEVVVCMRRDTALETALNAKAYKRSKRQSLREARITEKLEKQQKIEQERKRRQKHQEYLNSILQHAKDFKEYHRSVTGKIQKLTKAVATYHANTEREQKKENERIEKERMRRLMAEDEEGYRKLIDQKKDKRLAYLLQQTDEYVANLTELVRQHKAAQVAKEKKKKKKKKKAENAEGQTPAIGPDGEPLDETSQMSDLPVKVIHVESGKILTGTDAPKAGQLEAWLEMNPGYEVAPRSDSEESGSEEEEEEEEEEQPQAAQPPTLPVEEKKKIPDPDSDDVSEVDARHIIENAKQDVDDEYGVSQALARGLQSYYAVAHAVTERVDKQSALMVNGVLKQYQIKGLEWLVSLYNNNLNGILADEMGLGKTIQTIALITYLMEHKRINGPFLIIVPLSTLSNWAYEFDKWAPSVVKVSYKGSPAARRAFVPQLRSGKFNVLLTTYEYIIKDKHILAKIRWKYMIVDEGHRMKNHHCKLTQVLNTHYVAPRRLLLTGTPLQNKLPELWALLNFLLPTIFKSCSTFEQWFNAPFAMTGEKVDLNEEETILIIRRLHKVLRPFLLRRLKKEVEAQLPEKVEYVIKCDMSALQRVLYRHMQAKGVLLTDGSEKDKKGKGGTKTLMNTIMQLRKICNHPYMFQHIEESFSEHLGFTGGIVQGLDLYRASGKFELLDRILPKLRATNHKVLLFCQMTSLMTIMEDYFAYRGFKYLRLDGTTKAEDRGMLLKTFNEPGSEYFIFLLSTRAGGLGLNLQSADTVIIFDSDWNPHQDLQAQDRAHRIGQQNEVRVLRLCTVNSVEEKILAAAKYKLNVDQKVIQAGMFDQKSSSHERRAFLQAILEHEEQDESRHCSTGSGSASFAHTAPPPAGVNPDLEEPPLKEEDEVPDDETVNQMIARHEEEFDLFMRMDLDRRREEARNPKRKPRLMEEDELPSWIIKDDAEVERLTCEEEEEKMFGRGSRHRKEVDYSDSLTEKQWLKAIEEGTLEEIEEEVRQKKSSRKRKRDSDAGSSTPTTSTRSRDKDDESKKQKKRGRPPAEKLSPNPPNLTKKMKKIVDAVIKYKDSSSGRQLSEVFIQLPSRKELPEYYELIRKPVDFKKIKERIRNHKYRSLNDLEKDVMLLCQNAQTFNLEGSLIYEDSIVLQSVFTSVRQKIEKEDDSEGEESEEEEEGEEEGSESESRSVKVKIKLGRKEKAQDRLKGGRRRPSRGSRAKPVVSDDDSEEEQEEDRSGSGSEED

Consider `CC1(N)CCN(c2cccnc2NC(=O)c2nc(-c3ncccc3C(F)(F)F)cnc2N)CC1` [LXS196, reference compound], for which the “sensitivity of PKCi-resistant cells relative to parental MP41 cells” value in data set [1] (7-day, FIG. 9 and FIG. 10) is “could tolerate growth at higher concentrations”.

Consider `CSOC[C@H](NC(=O)c1ccc(N)cc1)C(=O)Nc1nc(-c2cccc(-c3ccncc3)c2)cs1` [Compound A], for which the IC50 on BRG1 amounted to 19.3 nM. In data set [2], the “growth inhibition compared with the clinical PKC (LXS196) and MEK (Selumetinib) inhibitors” value is reported as “comparable growth inhibition”; the “onset of growth inhibition compared with the clinical PKC and MEK inhibitors” value is “faster onset of inhibition”.

For the compound `COC[C@H](NC(=O)c1ccn(S(C)(=O)=O)c1)C(=O)Nc1nc(-c2cccc(N3C[C@@H](C)O[C@@H](C)C3)n2)cs1` [N—((S)-1-((4-(6-(cis-2,6-dimethylmorpholino)pyridin-2-yl)thiazol-2-yl)amino)-3-methoxy-1-oxopropan-2-yl)-1-(methylsulfonyl)-1H-pyrrole-3-carboxamide], the IC50 is 345 nM with THP1; below 350 nM in data set [3] (72 h, 3 days of compound treatment, read-out: absolute IC50 values, all cell lines tested); 62.3 nM with MEL202; 14.8 nM in the data set on U937; 31.5 nM in the data set on MP38; 11.8 nM in the data set with MP41. Further, the IC50 in the data set on EOL1 was 75.5 nM; in the data set with 22RV1, 29.7 nM; with MP46, 113 nM; in the data set on 92-1, 0.3 nM. Besides, the growth inhibition entry in data set [3] (3 days, 0 to 2 μM (uveal melanoma lines) or 0 to 1 μM (other lines), FIG. 14) was “potent growth inhibition”. The tolerability entry in data set [4] is given as “well tolerated”. In data set [5] ([…] once daily oral gavage), the “tumor response at the highest dose” value is listed as “tumor regression”. In addition, the tumor growth inhibition result in [5] (once daily oral gavage, increasing doses, 3 weeks) is recorded as “tumor growth inhibition in a dose-dependent manner”.

`CSCC[C@H](NC(=O)c1ccn(S(C)(=O)=O)c1)C(=O)Nc1nc(-c2cccc(-c3ccncc3)c2)cs1` [Compound B]: the “sensitivity of cell lines to BRG1/BRM inhibition” value in [6] is “more sensitive”. The “growth inhibition compared with the clinical PKC (LXS196) and MEK (Selumetinib) inhibitors” value in data set [2] is listed as “more potent effects on growth inhibition”. Besides, the “onset of growth inhibition compared with the clinical PKC and MEK inhibitors” value in data set [2] was “faster onset of growth inhibition”. Besides, the growth inhibition entry in the data set with parental MP41 cells is listed as “strong growth inhibition”; in [1] (PKCi-resistant MP41, 7-day, FIG. 10), “strong growth inhibition”; in data set [7], “potent growth inhibition”.
